Test results published in ChEMBL document CHEMBL4828722, “The synthesis and bioactivity of pyrrolo[2,3-d]pyrimidine derivatives as tyrosine kinase inhibitors for NSCLC cells with EGFR mutations” (Eur J Med Chem, 2021).
Calls of active or inactive are those of the source. The calls are words filed in the database; no cut-off is given here.

Columns and labels:
HCC827 [1] = assay: Induction of cell cycle arrest in human HCC827 cells harboring EGFR del E746-A750 mutant assessed as accumulation of cells in G0/G1 phase at 1 uM measured after 18 hrs by PI/RNaseA staining based flow cytometry analysis (Rvb= 49.60%); format: functional
BEAS-2B = assay: Cytotoxicity against human BEAS-2B cells assessed as reduction in cell viability measured after 48 hrs by CCK8 assay; format: cell-based
NCI-H460 = assay: Cytotoxicity against human NCI-H460 cells harboring wild type EGFR assessed as reduction in cell viability measured after 48 hrs by CCK8 assay; format: functional, cell-based; details: NCI-H460, 48 h
A549 [2] = assay: Induction of cell cycle arrest in human A549 cells harboring wild type EGFR assessed as accumulation of cells in G0/G1 phase at 0.5 uM measured after 18 hrs by PI/RNaseA staining based flow cytometry analysis (Rvb= 58.27%); format: functional
A549 [3] = assay: Induction of cell cycle arrest in human A549 cells harboring wild type EGFR assessed as accumulation of cells in G2/M phase at 0.5 uM measured after 18 hrs by PI/RNaseA staining based flow cytometry analysis (Rvb= 8.47%); format: functional
A549 [4] = assay: Induction of cell cycle arrest in human A549 cells harboring wild type EGFR assessed as accumulation of cells in S phase at 1 uM measured after 18 hrs by PI/RNaseA staining based flow cytometry analysis (Rvb= 33.26%); format: functional
A549 [5] = assay: Induction of cell cycle arrest in human A549 cells harboring wild type EGFR assessed as accumulation of cells in G2/M phase at 1 uM measured after 18 hrs by PI/RNaseA staining based flow cytometry analysis (Rvb= 8.47%); format: functional
A549 [6] = assay: Induction of cell cycle arrest in human A549 cells harboring wild type EGFR assessed as accumulation of cells in G2/M phase at 5 uM measured after 18 hrs by PI/RNaseA staining based flow cytometry analysis (Rvb= 8.47%); format: functional
NCI-H1975 [7] = assay: Induction of cell cycle arrest in human NCI-H1975 cells harboring EGFR L858R/T790M mutant assessed as accumulation of cells in G2/M phase at 0.5 uM measured after 18 hrs by PI/RNaseA staining based flow cytometry analysis (Rvb= 17.33%); format: functional
NCI-H1975 [8] = assay: Induction of cell cycle arrest in human NCI-H1975 cells harboring EGFR L858R/T790M mutant assessed as accumulation of cells in S phase at 1 uM measured after 18 hrs by PI/RNaseA staining based flow cytometry analysis (Rvb= 39.78%); format: functional
NCI-H1975 [9] = assay: Induction of cell cycle arrest in human NCI-H1975 cells harboring EGFR L858R/T790M mutant assessed as accumulation of cells in S phase at 5 uM measured after 18 hrs by PI/RNaseA staining based flow cytometry analysis (Rvb= 39.78%); format: functional
NCI-H1975 [10] = assay: Induction of cell cycle arrest in human NCI-H1975 cells harboring EGFR L858R/T790M mutant assessed as accumulation of cells in G2/M phase at 5 uM measured after 18 hrs by PI/RNaseA staining based flow cytometry analysis (Rvb= 17.33%); format: functional
HCC827 [11] = assay: Induction of cell cycle arrest in human HCC827 cells harboring EGFR del E746-A750 mutant assessed as accumulation of cells in G0/G1 phase at 0.5 uM measured after 18 hrs by PI/RNaseA staining based flow cytometry analysis (Rvb= 49.60%); format: functional
HCC827 [12] = assay: Induction of cell cycle arrest in human HCC827 cells harboring EGFR del E746-A750 mutant assessed as accumulation of cells in G0/G1 phase at 5 uM measured after 18 hrs by PI/RNaseA staining based flow cytometry analysis (Rvb= 49.60%); format: functional
NCI-H1975 [13] = assay: Induction of apoptosis in human NCI-H1975 cells harboring EGFR L858R/T790M mutant assessed as dead cells at 0.5 uM measured after 18 hrs by Annexin V-FITC/PI staining based flow cytometry analysis (Rvb= […]); format: functional
NCI-H1975 [14] = assay: Induction of apoptosis in human NCI-H1975 cells harboring EGFR L858R/T790M mutant assessed as live cells at 5 uM measured after 18 hrs by Annexin V-FITC/PI staining based flow cytometry analysis (Rvb= 89.4%); format: functional
NCI-H1975 [15] = assay: Induction of apoptosis in human NCI-H1975 cells harboring EGFR L858R/T790M mutant assessed as late apoptotic cells at 5 uM measured after 18 hrs by Annexin V-FITC/PI staining based flow cytometry analysis (Rvb= 0.1%); format: functional
NCI-H1975 [16] = assay: Induction of apoptosis in human NCI-H1975 cells harboring EGFR L858R/T790M mutant assessed as dead cells at 5 uM measured after 18 hrs by Annexin V-FITC/PI staining based flow cytometry analysis (Rvb= […]); format: functional
HCC827 [17] = assay: Induction of apoptosis in human HCC827 cells harboring EGFR del E746-A750 mutant assessed as late apoptotic cells at 0.5 uM measured after 18 hrs by Annexin V-FITC/PI staining based flow cytometry analysis (Rvb= 1.2%); format: functional
HCC827 [18] = assay: Induction of apoptosis in human HCC827 cells harboring EGFR del E746-A750 mutant assessed as total apoptotic cells at 0.5 uM measured after 18 hrs by Annexin V-FITC/PI staining based flow cytometry analysis (Rvb= 10.8%); format: functional
HCC827 [19] = assay: Induction of apoptosis in human HCC827 cells harboring EGFR del E746-A750 mutant assessed as live cells at 5 uM measured after 18 hrs by Annexin V-FITC/PI staining based flow cytometry analysis (Rvb= 87.5%); format: functional
HCC827 [20] = assay: Induction of apoptosis in human HCC827 cells harboring EGFR del E746-A750 mutant assessed as early apoptotic cells at 5 uM measured after 18 hrs by Annexin V-FITC/PI staining based flow cytometry analysis (Rvb= 9.6%); format: functional
HCC827 [21] = assay: Induction of apoptosis in human HCC827 cells harboring EGFR del E746-A750 mutant assessed as total apoptotic cells at 5 uM measured after 18 hrs by Annexin V-FITC/PI staining based flow cytometry analysis (Rvb= 10.8%); format: functional
[22] = target: MAP kinase p38 (Homo sapiens) (UniProt O15264+Q15759+Q16539+P53778); assay: Inhibition of p38 MAPK phosphorylation at Thr180/Tyr182 residue in human HBE cells at 5 uM incubated for 2 hrs by immunoblotting analysis; format: cell-based
NCI-H1975 [23] = assay: Inhibition of AKT phosphorylation in human NCI-H1975 cells at 0.1 to 5 uM incubated for 2 hrs by immunoblotting analysis; format: cell-based; details: dose 0.1-5 µM
[24] = target: Ribosomal protein S6 kinase beta-1 (Homo sapiens) (UniProt P23443); assay: Inhibition of P70S6K phosphorylation in human NCI-H1975 cells at 0.1 to 5 uM incubated for 2 hrs by immunoblotting analysis; format: cell-based; details: dose 0.1-5 µM
HCC827 [25] = assay: Inhibition of AKT phosphorylation in human HCC827 cells at 0.1 to 5 uM incubated for 2 hrs by immunoblotting analysis; format: cell-based; details: dose 0.1-5 µM
[26] = target: Ribosomal protein S6 kinase beta-1 (Homo sapiens) (UniProt P23443); assay: Inhibition of P70S6K phosphorylation in human HCC827 cells at 0.1 to 5 uM incubated for 2 hrs by immunoblotting analysis; format: cell-based; details: dose 0.1-5 µM

Chain of Ribosomal protein S6 kinase beta-1 (Homo sapiens) (P23443 whole entry, looked up): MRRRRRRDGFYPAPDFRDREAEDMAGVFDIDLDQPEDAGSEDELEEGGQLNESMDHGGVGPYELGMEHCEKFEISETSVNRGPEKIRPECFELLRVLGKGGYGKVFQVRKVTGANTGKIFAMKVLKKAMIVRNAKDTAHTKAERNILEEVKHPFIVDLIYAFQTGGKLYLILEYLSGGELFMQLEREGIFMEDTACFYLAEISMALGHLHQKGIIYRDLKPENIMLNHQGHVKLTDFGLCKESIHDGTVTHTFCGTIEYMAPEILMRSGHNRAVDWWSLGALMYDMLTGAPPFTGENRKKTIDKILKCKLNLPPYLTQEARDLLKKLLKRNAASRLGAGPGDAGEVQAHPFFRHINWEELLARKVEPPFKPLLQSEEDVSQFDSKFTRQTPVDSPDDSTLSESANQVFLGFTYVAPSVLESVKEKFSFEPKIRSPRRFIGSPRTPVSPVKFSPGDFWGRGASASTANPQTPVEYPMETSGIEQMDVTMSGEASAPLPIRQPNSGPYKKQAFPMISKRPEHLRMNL

SMILES	Activity (HCC827 [1]) [%]	IC50 (BEAS-2B) [µM]	IC50 (NCI-H460) [µM]	Activity (A549 [2]) [%]	Activity (A549 [3]) [%]	Activity (A549 [4]) [%]	Activity (A549 [5]) [%]	Activity (A549 [6]) [%]	Activity (NCI-H1975 [7]) [%]	Activity (NCI-H1975 [8]) [%]	Activity (NCI-H1975 [9]) [%]	Activity (NCI-H1975 [10]) [%]	Activity (HCC827 [11]) [%]	Activity (HCC827 [12]) [%]	Activity (NCI-H1975 [13]) [%]	Activity (NCI-H1975 [14]) [%]	Activity (NCI-H1975 [15]) [%]	Activity (NCI-H1975 [16]) [%]	Activity (HCC827 [17]) [%]	Activity (HCC827 [18]) [%]	also measured
C=CC(=O)Nc1cccc(Oc2nc(Nc3ccc(N4CCN(C)CC4)c(F)c3)nc3[nH]ccc23)c1 [ABIVERTINIB]	73	3.68	6.02	59.82	10.15	28.99	8.97	7.55	17.05	18.87	9.8	11.14	75.11	80.34	1.5	86.3	0.4	2	18.3	30.3	Activity (HCC827 [19]): 63%; Activity (HCC827 [20]): 13.8%; Activity (HCC827 [21]): 35.4%; inhibition [22]: Active; inhibition (NCI-H1975 [23]): Active; inhibition [24]: Active; inhibition (HCC827 [25]): Active; inhibition [26]: Active
C=CC(=O)Nc1cccc(Oc2nc(Nc3ccc(N4CCN(C)CC4)c([N+](=O)[O-])c3)nc3[nH]ccc23)c1	77.64	3.68	8.02	62.63	9.99	21.21	8.33	9.25	14.32	13.11	10.03	9.63	77.19	81.52	2	84.7	0.3	1.8	11.4	23.8	Activity (HCC827 [19]): 73.7%; Activity (HCC827 [20]): 10.9%; Activity (HCC827 [21]): 30.3%; inhibition [22]: Active; inhibition (NCI-H1975 [23]): Active; inhibition [24]: Active; inhibition (HCC827 [25]): Active; inhibition [26]: Active
C=CC(=O)Nc1cccc(Oc2nc(Nc3ccc(N4CCN(C)CC4)c(N)c3)nc3[nH]ccc23)c1	72.43	7.8	26.7	60.45	10.49	26.07	9.7	8.09	16.64	19.24	10.15	9.23	74.57	78.12	2.5	81.9	0.2	2	12.5	23.6	Activity (HCC827 [19]): 74.3%; Activity (HCC827 [20]): 12.1%; Activity (HCC827 [21]): 28.7%; inhibition [22]: Active; inhibition (NCI-H1975 [23]): Active; inhibition [24]: Active; inhibition (HCC827 [25]): Active; inhibition [26]: Active
